Source: PubChem BioAssay AID1918940 (Molecular Pharmacology Branch, DTP, NCI, 2023)

System: NCI-H211 complex spheroid viability
Assay: Anticancer human tumor NCI-H211 cell line growth inhibition [LSD1];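 also: luminescent viability read after seven days of drug exposure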;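 as to viability, T/C: 100% = DMSO vehicle control viability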
Conditions: for IC50: curve of first compound; for viability, T/C: stronger effect = lower value
Excerpt: Multicellular complex tumor spheroid response to LSD1 Inhibitor Iadademstat in combination with a variety of drugs and investigational agents in selected tumor cell lines
The current study was undertaken to assess response to LSD1 inhibitors in combination with standard-of-care drugs and investigational agents in solid tumor complex spheroid models as well as in the K-562 leukemia. Complex spheroids include a stromal component modeled by human endothelial cells (HUVEC) and fibroblasts modeled by human mesenchymal stem cells (MSCs). The concentration ranges selected for each drug and investigational agent were based upon clinically achievable concentrations if the clinical Cmax of the agent was known.
Compounds. The drugs and investigational agents used in this study are listed on Table 1. All of the agents used, including staurosporine (NSC755774) and gemcitabine (NSC613327), were obtained from the Developmental Therapeutics Program, NCI. FDA-approved anticancer drugs are available from the NCI at http://dtp.nci.nih.gov/branches/dscb/oncology_drugset_explanation.html. Drugs and investigational agents were >95% pure by proton nuclear magnetic resonance (NMR) and liquid chromatography/mass spectrometry (LC/MS). Stock solutions were prepared at 400x in DMSO, stored at -70 degrees C, and diluted in fresh medium prior to their use. The final concentration of DMSO in cell culture wells never exceeded 0.25% (v/v). The FDA-approved anticancer drug set is available from the Developmental Therapeutics Program at https://dtp.cancer.gov/organization/dscb/obtaining/available_plates.htm. All drugs and investigational agents were tested over a range starting from a high concentration at or near the clinical Cmax and decreasing in half-log increments. If the clinical Cmax for an agent had not been determined, the highest concentration tested was 10 microM.
Cell Lines. The patient-derived cancer cell (PDC) lines: 292921-168-R-J2-PDC, K24384-001-R-PDC, and 521955-158-R2-J5-PDC pancreatic carcinomas, 556581-035-R-J1 ovarian carcinoma, 324938-238-R-J1-PDC, 855422-203-R-J1-PDC and 883617-216-R-J1-PDC urothelial bladder carcinomas, 743489-274-T-PDC renal cell carcinoma, 138582-R-J1 Merkel cell tumor, K60290-347-R-J1 and K57222-313-R-J1-PDC glioblastomas, 653999-131-R-J2-PDC, LG0703-F948-PDC, and 349418-098-R-PDC non-small cell lung carcinomas, 885512-296-R-J2-PDC, 171881-019-R-J1-PDC breast carcinomas and 186277-243-T-J2-PDC and 233499-124-R-J2-PDC colon carcinomas were obtained from the NCI Patient-Derived Models Repository (PDMR, https://pdmr.cancer.gov). The established cell lines NCI/ADR-RES (RRID:CVCL_14520 and OVCAR-5 (RRID:CVCL_1628) ovarian carcinomas, 786-O (RRID:CVCL_1051) and A498 (RRID:CVCL_A498) renal cell carcinoma, NCI-H211 (ATCC, cat. CRL-5824; RRID:CVCL_1529), NCI-H196 (ATCC, cat. CRL-5823, RRID:CVCL_1509), SW 1271 (ATCC, cat. CRL-2177, RRID:CVCL_1716) and NCI-H1876 (ATCC, cat. CRL-5902, RRID:CVCL_1503) small cell lung carcinomas, MDA-MB-231 (RRID:CVCL_0062) and MDA-MB-468 (RRID:CVCL_0419)breast carcinomas (10-12). Pooled donor human umbilical vein endothelial cells (HUVEC, Lonza, cat. CC-2519) and human mesenchymal stem cells (hMSC, Lonza, cat. PT-2501) were purchased from Lonza (Walkersville, MD).
Cell Culture. All cells were maintained in an incubator at 37 degrees C and 5% CO2 with 95% humidity. The PDC lines were cultured according to standard operating procedures established by the NCI PDMR (https://pdmr.cancer.gov). Briefly all PDCs were thawed and cultured in Matrigel-coated flasks prepared with a working solution of 1X Ham's F-12 nutrient mix, without supplementation (Invitrogen, Waltham, MA, cat. 11765054), 100 U/mL penicillin-streptomycin (Invitrogen, cat. 15140122), and 2.5% Matrigel (Corning Inc., Corning, NY, cat. 354248) for the first three passages. […]

[1] = second compound 0.1 µM, first compound 0.00316 µM
[2] = second compound 0.1 µM, first compound 0.01 µM
[3] = second compound 0.1 µM, first compound 0.0316 µM
[4] = second compound 0.1 µM, first compound 0.1 µM
[5] = second compound 0.1 µM, first compound 0.316 µM
[6] = second compound 0.1 µM, first compound 1 µM
[7] = second compound 0.316 µM, first compound 0.00316 µM
[8] = second compound 0.316 µM, first compound 0.01 µM
[9] = second compound 0.316 µM, first compound 0.0316 µM
[10] = second compound 0.316 µM, first compound 0.1 µM
[11] = second compound 0.316 µM, first compound 0.316 µM
[12] = second compound 0.316 µM, first compound 1 µM
[13] = second compound 1 µM, first compound 0.00316 µM
[14] = second compound 1 µM, first compound 0.01 µM
[15] = second compound 1 µM, first compound 0.0316 µM
[16] = second compound 1 µM, first compound 0.1 µM
[17] = second compound 1 µM, first compound 0.316 µM
[18] = second compound 1 µM, first compound 1 µM
[19] = second compound 3.16 µM, first compound 0.00316 µM
[20] = second compound 3.16 µM, first compound 0.01 µM
[21] = second compound 3.16 µM, first compound 0.0316 µM
[22] = second compound 3.16 µM, first compound 0.1 µM
[23] = second compound 3.16 µM, first compound 0.316 µM
[24] = second compound 3.16 µM, first compound 1 µM
[25] = second compound 10 µM, first compound 0.00316 µM
[26] = second compound 10 µM, first compound 0.01 µM
[27] = second compound 10 µM, first compound 0.0316 µM
[28] = second compound 10 µM, first compound 0.1 µM
[29] = second compound 10 µM, first compound 0.316 µM
[30] = second compound 10 µM, first compound 1 µM

SMILES | IC50 (second compound 0.1 µM) [µM] | IC50 (second compound 0.316 µM) [µM] | IC50 (second compound 1 µM) [µM] | IC50 (second compound 3.16 µM) [µM] | IC50 (second compound 10 µM) [µM] | viability, T/C [1] [%] | viability, T/C [2] [%] | viability, T/C [3] [%] | viability, T/C [4] [%] | viability, T/C [5] [%] | viability, T/C [6] [%] | viability, T/C [7] [%] | viability, T/C [9] [%] | viability, T/C [10] [%] | viability, T/C [15] [%] | viability, T/C [16] [%] | viability, T/C [21] [%] | viability, T/C [22] [%] | viability, T/C [27] [%] | viability, T/C [28] [%] | also measured
Nc1ncn(C2CC(O)C(CO)O2)c(=O)n1 (stereo not given) + NC1CC1c1ccc(-c2cccc(O)c2)cc1 | < 0.00316 | < 0.00316 | < 0.00316 | < 0.00316 | < 0.00316 | 23.1 | 11.9 | 5.65 | 3.94 | 3.2 | 4.03 | 18.7 | 6.26 | 4.33 | 5.51 | 4 | 6.51 | 4.45 | 9.21 | 5.28 | viability, T/C [8]: 9.82%; viability, T/C [11]: 3.7%; viability, T/C [12]: 4.51%; viability, T/C [13]: 17.9%; viability, T/C [14]: 10.6%; viability, T/C [17]: 4.16%; viability, T/C [18]: 4.12%; viability, T/C [19]: 24.6%; viability, T/C [20]: 13.7%; viability, T/C [23]: 3.03%; viability, T/C [24]: 4.93%; viability, T/C [25]: 22.7%; viability, T/C [26]: 17.1%; viability, T/C [29]: 3.35%; viability, T/C [30]: 3.79%
CC(C)CC(NC(=O)CNC(=O)c1cc(Cl)ccc1Cl)B1OC(=O)CC(CC(=O)O)(C(=O)O)O1 (stereo not given) + NC1CC1c1ccc(-c2cccc(O)c2)cc1 | 0.0154 | 0.016 | 0.0149 | 0.0139 | 0.00726 | 82.2 | 61.9 | 29.3 | 5.5 |  |  | 97.5 | 30 | 5.69 | 27.8 | 4.52 | 24.5 | 4.84 | 17.4 | 2.36 | viability, T/C (second compound 0.1 µM, first compound 0.000316 µM): 90.8%; viability, T/C (second compound 0.1 µM, first compound 0.001 µM): 76.5%; viability, T/C (second compound 0.316 µM, first compound 0.000316 µM): 91.6%; viability, T/C (second compound 0.316 µM, first compound 0.001 µM): 102%; viability, T/C [8]: 61.6%; viability, T/C (second compound 1 µM, first compound 0.000316 µM): 74.5%; viability, T/C (second compound 1 µM, first compound 0.001 µM): 83.2%; viability, T/C [13]: 96.7%; viability, T/C [14]: 57.4%; viability, T/C (second compound 3.16 µM, first compound 0.000316 µM): 75.3%; viability, T/C (second compound 3.16 µM, first compound 0.001 µM): 82.8%; viability, T/C [19]: 93.4%; viability, T/C [20]: 56.5%; viability, T/C (second compound 10 µM, first compound 0.000316 µM): 71%; viability, T/C (second compound 10 µM, first compound 0.001 µM): 70.3%; viability, T/C [25]: 98.3%; viability, T/C [26]: 38.5%
CC(C)c1c(-c2ccccc2)nc2c(C#N)c[nH]n2c1=O + NC1CCC(NC2CC2c2ccccc2)CC1 | > 10 | > 10 | > 10 | > 10 | < 0.0316 |  |  | 74.2 | 74.7 | 72 | 81.5 |  | 84.8 | 81.7 | 69.9 | 80.7 | 46.6 | 56 | 35.2 | 37.4 | viability, T/C (second compound 0.1 µM, first compound 3.16 µM): 65.8%; viability, T/C (second compound 0.1 µM, first compound 10 µM): 85.8%; viability, T/C [11]: 72.4%; viability, T/C [12]: 72.8%; viability, T/C (second compound 0.316 µM, first compound 3.16 µM): 67.2%; viability, T/C (second compound 0.316 µM, first compound 10 µM): 75.5%; viability, T/C [17]: 77.3%; viability, T/C [18]: 60.5%; viability, T/C (second compound 1 µM, first compound 3.16 µM): 62.3%; viability, T/C (second compound 1 µM, first compound 10 µM): 70%; viability, T/C [23]: 61.6%; viability, T/C [24]: 65.5%; viability, T/C (second compound 3.16 µM, first compound 3.16 µM): 62%; viability, T/C (second compound 3.16 µM, first compound 10 µM): 60.5%; viability, T/C [29]: 32.7%; viability, T/C [30]: 34.9%; viability, T/C (second compound 10 µM, first compound 3.16 µM): 32.2%; viability, T/C (second compound 10 µM, first compound 10 µM): 32.8%
